These results are taken from patent US20230285405A1, “Pharmaceuticals for Treating or Preventing Nidoviruses and Picornaviruses” (priority 2020, published 2023).

For one data set, the system named is A549-mRuby cells. Put plainly: Drug screening: effect on cell growth (cell number day 4 / day 0). The note with it: 10 μM drug; for Growth_1: number of cells at day 4 divided by number of cells at day 0 / toxic_1: repeat #1; for Growth_2: number of cells at day 4 divided by number of cells at day 0 / toxic_2: repeat #2. Here is the method:
A549-mRuby cells were seeded (3,000 cells per well) in nine 384-well plates using Multidrop combi. Cells were seeded in a final volume of 30 μl with DMEM+10% BCS. The following day, 20 μl of OC43 were added (MOI 0.3) and incubated at 33° C., 5% CO2 for 1 hour. 50 nl from the Selleck FDA-approved drug library (cat #L1300, Selleck) were added (1:1,000 dilution). Two columns (32 wells) were left uninfected and two columns were treated with DMSO and virus (no drug control). Cells were imaged using the IncuCyte S3 to measure cell numbers at day 0. Cells were incubated for 4 days at 33° C., 5% CO2 and were stained for OC43 nucleoprotein. All the following steps were performed at room temperature. […] The screen was performed twice.
(§1) The following parameters were extracted from the images: number of cells at day 0, number of cells at day 4 and total OC43 staining intensity at day 4. For analysis, OC43 staining intensity was normalized to the number of cells in the well and further normalized to the mean of the no drug controls, which was set to 100. […] For each plate, a drug was considered as a putative hit if it reduced OC43 staining by over 3 standard deviations from the mean of the no drug controls. Drugs were considered hits if they were not toxic and reduced OC43 staining by over 3 standard deviations in both repeats.
(§2) A library of 1,900 clinically used drugs was screened, the drugs either approved for human use or having extensive safety data in humans (Phase 2 or 3 clinical trials), for their ability to inhibit OC43 infection of the human lung epithelial cell line A549 (expressing an H2B-mRuby nuclear reporter). One day after plating, cells were infected at an MOI of 0.3, incubated at 33° C. for 1 hour and drugs were added to a final concentration of 10 μM. Cells were then incubated at 33° C. for 4 days, fixed and stained for the presence of the viral nucleoprotein. The cells were imaged at day 0 (following drug addition) and day 4 (after staining) to determine the drugs effect on cell growth and OC43 infection.

For a further data set, the system named is OC43. Put plainly: Drug screening: OC43 nucleoprotein staining in infected A549-mRuby cells. The data set is classed as cell-based, human beta coronavirus OC43. As to the method: A549-mRuby cells were seeded (3,000 cells per well) in nine 384-well plates using Multidrop combi. Cells were seeded in a final volume of 30 μl with DMEM+10% BCS. The following day, 20 μl of OC43 were added (MOI 0.3) and incubated at 33° C., 5% CO2 for 1 hour. 50 nl from the Selleck FDA-approved drug library (cat #L1300, Selleck) were added (1:1,000 dilution). Two columns (32 wells) were left uninfected and two columns were treated with DMSO and virus (no drug control). Cells were imaged using the IncuCyte S3 to measure cell numbers at day 0. Cells were incubated for 4 days at 33° C., 5% CO2 and were stained for OC43 nucleoprotein. All the following steps were performed at room temperature. Cells were fixed in 50 μl 4% PFA/PBS for 15 min, blocked with 50 μl 10% BSA+0.5% Triton X-100 in PBS for 30 minutes, stained with 50 μl anti-OC43 (cat #MAB9013, Milipore) diluted 1:2,000 in 2% BSA+0.1% Triton X-100 in PBS for 1 hour, washed with 50 μl PBS three times, stained with anti-mouse-AlexaFluor488 diluted 1:1,000 in 2% BSA+0.1% Triton X-100 in PBS for 1 hour, washed with 50 μl PBS three times and imaged on the IncuCyte S3 (day 4). The screen was performed twice.
as §1, §2

Where [1] appears, read: Betacoronavirus 1, OC43, 96 h, 10 μM drug, MOI 0.3, 4 days, OC43 staining normalized to no-drug controls, mean of the two screen repeats, read-out: OC43_mean.
Setting [2] is: Betacoronavirus 1, OC43, 96 h, 10 μM drug, MOI 0.3, 4 days, normalized to no-drug controls in the same plate, repeat #1, read-out: OC43_1: % staining of OC43 in screen repeat #1.
The mark [3] stands for this setting: Betacoronavirus 1, OC43, 96 h, 10 μM drug, MOI 0.3, 4 days, normalized to no-drug controls in the same plate, repeat #2, read-out: OC43_2: % staining of OC43 in screen repeat #2.

Counter-ions that a name gives are not always drawn. Like-named read-outs stand apart in the source and are kept apart here.

Turning to `CNCCCN1c2ccccc2CCc2ccccc21` [Desipramine Hydrochloride], in the data set with A549-mRuby cells, the “Growth_1: number of cells at day 4 divided by number of cells at day 0” value worked out at 4.4, the toxic_1 is 0, the “Growth_2: number of cells at day 4 divided by number of cells at day 0” value is 3.9 and the toxic_2 is reported as 0. In the data set with OC43 (10 μM drug, repeat #1), the hit_1 worked out at 1. In the data set with OC43 (10 μM drug, repeat #2), this compound displayed a hit_2 of 1. The activity at 10 µM with OC43 (setting [1]) was determined as 21.8%. In addition, the activity at 10 µM with OC43 (setting [2]) was 20%. Also, the activity at 10 µM in the data set with OC43 (setting [3]) was determined as 23.7%.
Consider `O=C(Nc1ccccc1)OCC(CN1CCCCC1)OC(=O)Nc1ccccc1` (stereo not drawn) [Diperodon HCl], for which, in the data set on A549-mRuby cells, the “Growth_1: number of cells at day 4 divided by number of cells at day 0” value is listed as 4.6, the toxic_1 was 0, the “Growth_2: number of cells at day 4 divided by number of cells at day 0” value turned out to be 4.4 and the toxic_2 is 0. The compound further registered a hit_1 in the data set with OC43 (10 μM drug, repeat #1) of 1. In the data set on OC43 (10 μM drug, repeat #2), this compound came in with a hit_2 of 1. In the data set with OC43 (setting [1]), the activity at 10 µM turned out to be 42.9%. In the data set with OC43 (setting [2]), the activity at 10 µM worked out at 24.2%. The activity at 10 µM in the data set with OC43 (setting [3]) amounted to 61.6%.
For the compound `CN1CCC(OC(c2ccccc2)c2ccccc2)CC1` [Diphenylpyraline HCl], in the data set with A549-mRuby cells, the “Growth_1: number of cells at day 4 divided by number of cells at day 0” value was determined as 6.0, the toxic_1 was found to be 0, the “Growth_2: number of cells at day 4 divided by number of cells at day 0” value stood at 4.2 and the toxic_2 amounted to 0. In the data set on OC43 (10 μM drug, repeat #1), this compound had a hit_1 of 1. Moreover, the hit_2 in the data set with OC43 (10 μM drug, repeat #2) is recorded as 1. The activity at 10 µM in the data set on OC43 (setting [2]) turned out to be 33.2%. Besides, the activity at 10 µM with OC43 (setting [3]) amounted to 51.6%. Further, the activity at 10 µM in the data set with OC43 (Betacoronavirus 1, OC43, 96 h, read-out: OC43_mean) came to 42.4%.
For the compound `COc1cc2nc(N3CCN(C(=O)C4COc5ccccc5O4)CC3)nc(N)c2cc1OC` (stereo not drawn) [Doxazosin Mesylate], in the data set with A549-mRuby cells, the “Growth_1: number of cells at day 4 divided by number of cells at day 0” value is 5.2, the toxic_1 amounted to 0, the “Growth_2: number of cells at day 4 divided by number of cells at day 0” value worked out at 4.9 and the toxic_2 was found to be 0. This compound came in with a hit_1 in the data set with OC43 (10 μM drug, repeat #1) of 1. Moreover, the hit_2 in the data set with OC43 (10 μM drug, repeat #2) worked out at 1. In addition, the activity at 10 µM in the data set with OC43 (setting [1]) is 29.7%. Besides, the activity at 10 µM with OC43 (setting [2]) was determined as 50.1%. The activity at 10 µM in the data set with OC43 (setting [3]) was found to be 9.2%.
Consider `CN(C)CCC=C1c2ccccc2COc2ccccc21` [Doxepin HCl], for which, in the data set on A549-mRuby cells, the “Growth_1: number of cells at day 4 divided by number of cells at day 0” value was determined as 4.9, the toxic_1 came to 0, the “Growth_2: number of cells at day 4 divided by number of cells at day 0” value stood at 5.7 and the toxic_2 was found to be 0. Besides, the hit_1 in the data set with OC43 (10 μM drug, repeat #1) was found to be 1. Further, the hit_2 in the data set on OC43 (10 μM drug, repeat #2) stood at 1. For the same compound, in the data set with OC43 (setting [1]), the activity at 10 µM was found to be 32.6%. In addition, the activity at 10 µM in the data set with OC43 (setting [2]) was found to be 29.2%. The activity at 10 µM in the data set with OC43 (setting [3]) stood at 36.1%.
Take `COc1cc2c(cc1OC)CN(CCc1ccc(NC(=O)c3cccc4c(=O)c5cccc(OC)c5[nH]c34)cc1)CC2` [Elacridar (GF120918), Elacridar]: in the data set with A549-mRuby cells, the “Growth_1: number of cells at day 4 divided by number of cells at day 0” value is recorded as 4.6, the toxic_1 is 0, the “Growth_2: number of cells at day 4 divided by number of cells at day 0” value was 5.8 and the toxic_2 is on record as 0. The hit_1 with OC43 (10 μM drug, repeat #1) is 1. The compound also showed a hit_2 in the data set with OC43 (10 μM drug, repeat #2) of 1. In the data set with OC43 (setting [1]), the activity at 10 µM was 31.4%. Moreover, in the data set with OC43 (setting [2]), the activity at 10 µM was 24.4%. For the same compound, the activity at 10 µM with OC43 (setting [3]) came out at 38.3%.
Take `CCCCCCCC(=O)N[C@H](CN1CCCC1)[C@H](O)c1ccc2c(c1)OCCO2` [Eliglustat]: in the data set on A549-mRuby cells, the “Growth_1: number of cells at day 4 divided by number of cells at day 0” value is 5.5, the toxic_1 came out at 0, the “Growth_2: number of cells at day 4 divided by number of cells at day 0” value amounted to 4.8 and the toxic_2 was found to be 0. In addition, the hit_1 in the data set with OC43 (10 μM drug, repeat #1) is 1. The hit_2 in the data set on OC43 (10 μM drug, repeat #2) was 1. The activity at 10 µM with OC43 (Betacoronavirus 1, 96 h, 10 μM drug, MOI 0.3, 4 days, OC43 staining normalized to no-drug controls, mean of the two screen repeats, read-out: OC43_mean) turned out to be 21.5%. In addition, the activity at 10 µM in the data set with OC43 (setting [2]) was found to be 22.7%. Further, the activity at 10 µM with OC43 (setting [3]) was determined as 20.4%.
